# Experiments:
# [1] = test system: p53 knock out Colon 26 clones; test: p53 KO Colon26 model; type: in vivo, mouse
# Experimental: p53 knock out Colon 26 Clones were grown in the presence of 1 μM HDM201 and screened for p53 expression by western blot, loading 40 μg total protein/sample, using an anti p53 antibody (Cell Signaling CST #2524). p53 negative clones were identified, grown without HDM201 for 4 days and then re-treated with 1 μM HDM201 for 24 hours, along with Colon26 parental cells, to monitor p53 pathway’ response. p53 and p21 changes were monitored by western blot and an 84 gene qPCR array was used to additionally confirm pathway activity (RT2 Profiler PCR Array p53 pathway, Cat No. 330231 PAMM-027ZA Qiagen). Select clones were also submitted for RNASeq analysis.
# There was no additional benefit observed when the PD-1/PD-L1 axis was blocked (FIG. 30).
# [2] = test system: AH1-specific CD8+ T cells; test: Anti-tumor memory T cell responses: IFN-γ ELISPOT with AH1 peptide and H2Ld-AH1 dextramers on splenocytes; type: cell-based, mouse
# From the text: Consistent with this, we observed an increase in frequency of AH1-specific CD8^+ T cells in spleens of mice treated with HDM201 or combination of HDM201 with anti-PD1 antibody induced responders as detected by H2Ld-AH1 dextramers. (FIGS. 28 and 29).
# [3] = test system: immune cells in Colon 26 tumors; test: Immune profiling of Colon 26 tumors and draining lymph nodes by flow cytometry (7628 and 8063 Colon 26-XPD); type: in vivo, mouse; settings: 40 mg/kg every 3h for 3 times on days 0 and 7
# Experimental: HDM201 modulated profiles of immune cells in Colon 26 tumors. Increases in % CD11c^+/CD45^+ myeloid cells (A), % CD8^+/CD45^+ T cells (B), PDL1 MFI in CD45^− cells (C), and % PD1^+/CD45^+ lymphocytes (d). Colon 26 cells were implanted into the right flank of Balb/c mice. When tumors reached ˜60 mm^3, mice were randomized and treated with HDM201 at 40 mg/kg every 3h for 3 times on days 0 and 7. Mice were euthanized, and tumors were collected and processed for FACS analysis on Days 5 and 12 post first dose.
# HDM201 modulated profiles of immune cells in Colon 26 tumors. Increases in % CD103^+CD11c^+ DCs (A), % Tbet*EOMES-CD8+/CD45^+ T cells (B), and CD8/Treg ratio (C). Colon 26 Cells were implanted into right flank of Balb/c mice. When tumors reached ˜100 mm^3, mice were randomized and treated with HDM201 at 40 mg/kg every 3h for 3 times on days 0 and 7. Mice were euthanized; tumors and draining lymph nodes were collected and processed for FACS analysis on Days 5 and 12 post first dose.
# Colon 26 cells were harvested at 80-95% confluence, washed, and re-suspended in cold PBS at a concentration of 2×10^6 cells/ml. Finally, 0.2×10^6 cells in a total volume of 100 μL were implanted subcutaneously (sc) into the upper right flank of naive Balb/c mice.
# The tumor infiltrating lymphocytes (TILs) from tumors were analyzed by flow cytometry for both studies ([…] Colon 26-XPD and 8063 Colon 26-XPD). Lymph node lymphocytes were analyzed for 8063 Colon 26-XPD. The samples were plated into two separate 96 well plates, one for T cell staining (Table Ex3.5) and one for myeloid cell staining (Table Ex3.6).
# For Study 7628 Colon26-XPD, tumors and spleens were collected from mice on Day 5 and Day 12 post initiation of treatment. Single cell suspensions were generated according to RDS-2016-00163. Briefly, the tissues were minced with scissors followed by mechanical homogenization in dissociation buffer containing RPMI 1640 (Gibco, Life Technologies) with Liberase™ research grade collagenase (Roche) and DNase 1 recombinase (Roche) using the GentleMAX (Miltenyi). Following a 15 minute incubation at 37° C. in a water bath, the homogenates were quenched with 10% FBS and filtered on a […] cell strainer (Falcon). At the end of this process, the single cell suspension of cells was obtained and 2 million cells were plated into 96-well plates for staining with either a T cell or myeloid cell panel of antibodies.
# For Study 8063 Colon 26-XPD, tumors and lymph nodes were collected and then processed both mechanically and enzymatically into a single cell suspension according to RDS-2017-00141. The digestion process involves 4-5 consecutive digestion cycles with new digestion buffer containing DNase I (Roche), Collagenase P (Roche), and dispase (Gibco) in each cycle. At the end of this process, cell suspension was filtered on a […] cell strainer to obtain single cell suspension. Two million cells were plated into 96 well plates for staining of T cell panel or myeloid cell panel antibodies.
# Following this, the samples were blocked with a 1:50 dilution of mouse Fc block (Miltenyi Biotec) for 30 minutes on ice. The samples were spun for 5 minutes at 1500 rpm and then stained with a fluorochrome-conjugated surface antibody mix as shown in Table Ex3.5 and Ex3.6 for 60 minutes. During the blocking and staining procedures, cells were maintained at 4° C. and protected from light.
# For intracellular staining of T cells, after surface staining, the plates were spun again for 5 minutes at 1500 rpm, and then the cells were fixed and permeabilized overnight using a fix/perm kit (eBioscience). The cells were washed with a permeabilization buffer and then stained with the intracellular antibodies for 1 hour at 4° C. in the dark. The plates were washed twice in permeabilization buffer and suspended in 200 μl PBS. Data acquisition was performed using the LSRFortessa™ (BD Biosciences).
# Analysis was performed after each run using FLOWJO v10.0.7 software from Treestar. […]
structure (smiles),measurement,setting,value
"COc1ncc(-c2nc3c(n2C(C)C)[C@H](c2ccc(Cl)cc2)N(c2cc(Cl)cn(C)c2=O)C3=O)c(OC)n1 [HDM201, (S)-5-(5-Chloro-1-methyl-2-oxo-1,2-dihydro-pyridin-3-yl)-6-(4-chloro-phenyl)-2-(2,4-dimethoxy-pyrimidin-5-yl)-1-isopropyl-5,6-dihydro-1H-pyrrolo[3,4-d]imidazol-4-one]",tumor growth inhibition,[1],not able to inhibit tumor growth
same,frequency of AH1-specific CD8+ T cells in spleens (H2Ld-AH1 dextramers),[2]; responder mice,increase
same,antigen-specific production of IFN-γ by T cells (ELISPOT),[2]; splenocytes of responder mice stimulated with AH1 peptide,detected in all responders
same,% CD103+CD11+ DCs,[3],increased
same,% PD1+CD45+ cells,[3],increased
same,CD8/Treg ratio,[3],increased
same,PDL1 expression (MFI) in CD45− cells,[3],induced
same,newly primed % Tbet+EOMES−CD8+/CD45+ T cells,[3],increased
same,% CD11C+CD45+ cells in tumors,[3]; Days 5 and 12,increased
same,CD8 T cells in tumors,[3]; Days 5 and 12,increased
